Laboratory results as given in patent publication US20240353393A1, “LABEL FREE DRUG AND TISSUE BIOPSY SCREENING/DIAGNOSTIC IN CANCER” (University of Virginia Patent Foundation, priority 2023, published 2024).

Assays:
Type in all cases: cell-based
AA prostate cancer cells = assay: FLIRR vs intensity-based redox ratio, CoCl2 pretreatment and glucose stimulation
PCa cells [1] = assay: Trp-NAD(P)H FRET interaction by FLIM-FRET after doxorubicin treatment; settings: as early as 15 mins of treatment, real time, before induction of apoptosis
Description: Auto-fluorescent biomarker, tryptophan (Trp), has also been linked to cancer investigations. Trp, an essential amino acid, is a precursor of niacin, which in turn is a precursor of NAD (P) H. Increased Trp catabolismand increased indoleamine 2,3-dioxygenase (IDO) activity in the kynurenine pathway are linked to cancer development and progression. Therefore, probing Trp is clinically relevant. In general, Trp fluorescence intensity and lifetime mainly provide information on the protein composition, protein structure of which they are a part of and changes in overall cellular microenvironment. Trp is therefore used as a marker for protein abundance. […] In FLIM-FRET measurements, FRET events are identified if there is reduction in the donor lifetime, because of quenching of its fluorescence in the presence of the acceptor. […] The efficiency of energy transfer or E % is calculated from the following equation E=1-τm/τ0, where τm is the mean lifetime of Trp in cells and τ0=3.1 ns of unquenched Trp lifetime measured from Trp in solution. […]
FLIM instrumentation can include a 3-channel FLIM imaging system of a Zeiss LSM 780 confocal/multiphoton (MP) laser scanning system coupled to the Zeiss inverted epi-fluorescence microscope, which is controlled with the ZEN software (Carl Zeiss, Inc). […]

PCa cells [2] = assay: FLIRR (NAD(P)H-a2%/FAD-a1%) by FLIM after doxorubicin treatment; settings: as early as 15 mins of treatment, real time, before induction of apoptosis
Description: The enzyme-bound fractions of NAD (P) H (a2%) and FAD (a1%) and their lifetimes (tm) are used to quantify these metabolic changes, in particular with our novel NAD (P) H-a2%/FAD-a1% FLIM-based redox ratio. The commonly used intensity-based redox ratio [NAD (P) H/FAD], based predominantly on signals driven by mitochondrial OXPHOS is defined as a reduction of this ratio, due to the conversion of fluorescent NAD (P) H to non-fluorescent NAD+ and conversion of non-fluorescent FADH2 to fluorescent FAD. […]
FLIM instrumentation can include a 3-channel FLIM imaging system of a Zeiss LSM 780 confocal/multiphoton (MP) laser scanning system coupled to the Zeiss inverted epi-fluorescence microscope, which is controlled with the ZEN software (Carl Zeiss, Inc). […] The fluorescence decay per pixel was measured using 3-channel SPC-150 TCSPC board (Becker & Hickl, GmbH) where the SPCM software was used to acquire the FLIM data (v. 8.91). […]
The ratio of the bound NAD (P) H to bound FAD, the Fluorescence Lifetime Imaging Redox Ratio (FLIRR), is an optical biomarker to determine a cell's primary metabolic pathway with higher FLIRR values often consistent with a shift towards oxidative phosphorylation and lower values often associated with a shift towards glycolysis.

## [Cl-].[Cl-].[Co+2] [CoCl2]
AA prostate cancer cells
  NADH-a2%/FAD-a1% ratio: decrease

## COc1cccc2c1C(=O)c1c(O)c3c(c(O)c1C2=O)C[C@@](O)(C(=O)CO)C[C@@H]3O[C@H]1C[C@H](N)[C@H](O)[C@H](C)O1 [doxorubicin]
PCa cells [1]
  Trp-NAD(P)H FRET interactions: increase
PCa cells [2]
  FLIRR of metabolic co-enzymes NAD(P)H & FAD: increase
